One assay has as its target dipeptidyl peptidase IV (Homo sapiens, UniProt P27487). Nature of the assay: biochemical. The note with it: values marked with "*" are ID50 values; read-out: IC50DPIV, values marked with "*" = ID50.
Chain of dipeptidyl peptidase IV (P27487 whole entry, species assumed): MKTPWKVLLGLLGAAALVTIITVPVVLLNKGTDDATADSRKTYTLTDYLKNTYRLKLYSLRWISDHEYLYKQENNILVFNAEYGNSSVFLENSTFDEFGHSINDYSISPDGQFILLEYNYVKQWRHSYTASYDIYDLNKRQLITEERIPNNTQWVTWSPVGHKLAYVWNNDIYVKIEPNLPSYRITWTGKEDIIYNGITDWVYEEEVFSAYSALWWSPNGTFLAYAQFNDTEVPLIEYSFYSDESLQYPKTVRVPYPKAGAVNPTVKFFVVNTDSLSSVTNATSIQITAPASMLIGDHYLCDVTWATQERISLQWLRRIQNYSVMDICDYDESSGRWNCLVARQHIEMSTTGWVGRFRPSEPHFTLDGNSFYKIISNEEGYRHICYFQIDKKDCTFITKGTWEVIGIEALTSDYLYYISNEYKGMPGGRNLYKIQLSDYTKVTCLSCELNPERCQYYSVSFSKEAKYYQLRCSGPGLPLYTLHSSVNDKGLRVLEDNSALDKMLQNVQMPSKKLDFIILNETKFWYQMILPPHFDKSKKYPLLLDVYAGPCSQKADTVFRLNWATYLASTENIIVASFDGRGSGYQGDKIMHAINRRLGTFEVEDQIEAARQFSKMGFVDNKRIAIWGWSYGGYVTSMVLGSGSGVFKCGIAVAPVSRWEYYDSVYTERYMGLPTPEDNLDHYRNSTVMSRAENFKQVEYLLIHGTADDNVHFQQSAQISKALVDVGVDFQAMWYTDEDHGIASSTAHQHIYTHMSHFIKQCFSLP
Take `CCOC(=O)n1ccc(C(=O)Nc2cc(C)ccn2)n1` [D6.112]: the IC50 worked out at 148 µM.
For the compound `CCOC(=O)c1c(NC(=O)c2cccc([N+](=O)[O-])c2)sc(C(C)=O)c1C` [D6.117], the IC50 came to 215 µM.
Take `O=C(CC1(O)OC(c2ccccc2)=CC1=O)c1ccccc1` (stereo not drawn) [D6.122]: the IC50 turned out to be 252 µM.
On the same count and under the same terms, for `COc1ccc(NC(=O)CSc2nnc3n2-c2sc4c(c2C(=O)C3CCc2ccccc2)CC(C)(C)OC4)cc1` (stereo not drawn) [D6.126] the value was 284 µM.
On the same count and under the same terms, for `CCn1c2ccccc2c2ccc(/C=N/NC(=O)c3ccc([N+](=O)[O-])cc3)cc21` [D7.001] the value was 165 µM.
Take `COc1ccc(N(C(C)C(=O)N/N=C/c2ccc(Cl)cc2Cl)S(C)(=O)=O)cc1` (stereo not drawn) [D9.001]: the IC50 is 2.9 µM.
Still for that read-out and setting: for `Cc1cc(NNC(=O)COc2ccc(Cl)cc2Cl)nc(NS(=O)(=O)c2ccccc2)n1` [D9.015] the value was 465 µM.
As for `O=C(CCCCC(=O)N/N=C/c1ccc(OC(=O)c2cc([N+](=O)[O-])cc([N+](=O)[O-])c2)cc1)N/N=C/c1ccc(OC(=O)c2cc([N+](=O)[O-])cc([N+](=O)[O-])c2)cc1` [D10.001], the IC50 is 1 µM.
Still for that read-out and setting: for `COc1cc(/C=N/NC(=O)c2cc(O)c(O)c(O)c2)cc(Br)c1OCc1ccccc1Cl` [D10.002] the value was 2 µM; for `COc1ccc(N(C(C)C(=O)N/N=C/c2ccc(Cl)cc2Cl)S(C)(=O)=O)cc1` (stereo not drawn) [D10.003], 2.9 µM; for `C/C(=N\NC(=O)c1cc(-c2ccc(CC(C)C)cc2)n[nH]1)c1ccc2ccccc2c1` [D10.007], 7.2 µM.

The same assay, now with this note: values without "*" = IC-50; read-out: IC50DPIV.
Consider `Cc1ccc(S(=O)(=O)CNC(=S)c2ccc3ccccc3c2)cc1` [D9.002], for which the IC50 is 14.5 µM.
Same read-out and setting: for `CCCC(=O)Oc1ccc(N(C(=O)CCC)S(=O)(=O)c2cccs2)cc1` [D9.004] the value was 31.3 µM.
As for `CCOC(=O)c1c(C)oc2c1c1c(c3ccccc32)OCN(C2CCS(=O)(=O)C2)C1` (stereo not drawn) [D9.006], the IC50 was 34.2 µM.
Take `CS(=O)(=O)N1CCN(C(=O)Nc2ccc(C(F)(F)F)cc2)C1C(=O)NCc1cccc(N)c1` (stereo not drawn) [D9.007]: the IC50 is 40.5 µM.
Consider `CCOP(=O)(CC(=O)N1CCN(C(=O)Nc2cccc(Br)c2)C1C(=O)NCc1cccc(CN)c1)OCC` (stereo not drawn) [D9.008], for which the IC50 amounted to 46.3 µM.
On the same count and under the same terms, in the case of `COc1ccc(NS(=O)(=O)c2ccc(/N=C/c3cc(Br)cc(Br)c3O)cc2)nn1` [D9.010] it was 88.8 µM.
As to `O=C(N/N=C/c1ccc([N+](=O)[O-])c(O)c1)/C(=C\c1cccs1)NC(=O)c1ccccc1` [D10.004], the IC50 was found to be 6.5 µM.
On the same count and under the same terms, in the case of `CCC(=O)Oc1ccc(/C=N/NC(=O)c2ccccc2[N+](=O)[O-])c(OC(=O)CC)c1` [D10.005] it was 6.6 µM.
On the same count and under the same terms, in the case of `CN(C)c1ccc(/C=N\NC(=O)c2cc(N)ccc2O)cc1` [D10.008] it was 7.6 µM.
The same measure, in the same setting: in the case of `O=C(N/N=C/c1cc([N+](=O)[O-])ccc1O)c1cccc2cc[nH]c12` [D10.009] it was 8.1 µM; in that of `COc1cc(Br)cc(Br)c1OCC(=O)N/N=C/c1cc(O)c(O)c(Br)c1Br` [D10.010], 9.1 µM; in that of `CC(=O)N(C(C)=O)c1nc(-c2ccccc2)cn1/N=C/c1ccccc1` [D10.011], 9.9 µM.
As to `Nc1nonc1-n1nnc(C(=O)NN=C2c3ccccc3-c3ccccc32)c1-c1ccccc1` [D10.012], the IC50 came to 10 µM.
Still for that read-out and setting: in the case of `COc1cc(Br)ccc1OCC(=O)N/N=C/c1cc(O)c(O)c(Br)c1Br` [D10.013] it was 10.2 µM; in that of `O=C(COc1cccc(Br)c1)N/N=C/c1cc(O)c(O)c(Br)c1Br` [D10.014], 11.4 µM.
The same measure, in the same setting: for `Brc1cccc(/C=N/Nc2nnc3c(n2)[nH]c2ccccc23)c1` [D10.015] the value was 12.2 µM; for `COc1ccc(/C=N/NC(=O)c2cc(O)c(O)c(O)c2)cc1COc1cc(C)c(Cl)c(C)c1` [D10.016], 12.3 µM; for `COc1ccccc1/C=N/NC(=O)c1cccc([N+](=O)[O-])c1` [D10.017], 12.3 µM.
The same measure, in the same setting: for `O=C(Cn1c2ccccc2c(=O)c2ccccc21)NN=Cc1cc(Br)c(O)c(Br)c1` [D10.018] the value was 12.4 µM.
